Two compounds from US20250289850A1, “NOVEL ANTIMICROBIAL PEPTIDES AND METHODS OF USE THEREOF” (QATAR UNIVERSITY, priority 2024, published 2025) can be followed below.

Structures are written as SMILES. Converted amounts (≈) assume the structure as drawn. Read-outs that look alike come from different tables or passages of the source. Where a SMILES comes first, the peptide text is derived from it.

The subject of one series is MRSA (ATCC-33591). In kind it is cell-based, Methicillin-Resistant Staphylococcus Aureus. How it is done:
(§1) MRSA and E. coli strains were acquired from the microbiology bacterial culture stock at the Biomedical Research Centre (BRC), Qatar University. MRSA (ATCC-33591) and E. coli (ATCC-29522) strains were cultivated overnight on nutrient agar (Remel, ThermoFisher Scientific, Lenexa, KS, USA), followed by a 24 hour period of incubation at 37° C. and adjustment to 0.5 MacFarland Standard, which was measured using DensiCHEK PLUS (bioMérieux, France).
(§2) Minimal Inhibitory Concentration (MIC) of AMP MRSA and E. coli was determined as follows. […] serial dilutions of AMP starting from 2000 μg/ml of 160 μL Mueller Hinton broth (MHB, Lioflchem, Roseto degli Abruzzi, Italy) were transferred to the wells (100 μl each) in a 96-well flat-bottom plate (Microtesttm 96 tissue culture plate, Franklin Lakes, NJ, USA) to get concentrations of 2000, 1000, 500, 250, 125, 62.5, 31.25, 15.6, and 7.8 μg/mL. Then, 10 μL of 0.5 MacFarland for each type (MSRA and/or E. coli) of the measured strain was added to each well. To assure sterilization, the 96-well plate contained wells with MHB control, MHB with AMP treatment control, and controls for the bacterial strain mixed with MHB to guarantee bacterial growth. 96-well plates were then sealed tightly with a parafilm and placed in an aerobic shaker (Innova 44 Incubator Shaker) for 24 hours at 37° C. at a speed of 100 rpm. After this, the MIC of the treatment that effectively eliminated bacterial growth was determined with the naked eye following previously established procedure as described in Eltai N O et al., Antibacterial and Antibiofilm Activity of Mercaptophenol Functionalized-Gold Nanorods Against a Clinical Isolate of Methicillin-Resistant Staphylococcus aureus. […]
(§3) To determine the minimum biocidal concentration ([…]) for the AMP, 20 μL of a ten-fold serial dilution of the MIC with AMP was spread onto fresh nutrient agar media and incubated at 37° C. for around 18 hrs. Bacterial colonies were counted and compared to those grown on control nutrient agar, which had 20 μL of a solution composed only of bacteria and MHB.

Another series concerns E. coli biofilm. In kind it is cell-based, Escherichia coli. On the procedure:
The first step in creating the biofilm was the selection of borosilicate glass beads 3-4 mm in diameter (ISOLAB Laborgeräte GmbH, Singapore). Then, the selected beads were soaked and cleaned with a soap solution; after that, they were washed with ddH2O, soaked in 80% ethanol for 24 hrs, and then washed properly using sterile water. Bacteria were then grown on these beads to create the biofilm by taking 20 μL of 0.5 McFarland from the bacterial strains (either MRSA or E. Coli), adding it to 200 μL of nutrient broth in 96-well flat-bottom plates, and placing one bead in cach well. 96-well plates were then sealed tightly with a parafilm and placed in an acrobic shaker (Innova 44 Incubator Shaker) for 72 hours at 37° C. at a speed of 100 rpm. Every 24 hours, 200 μL of fresh media was added to replace the consumed media. […] Biofilm colonies were then counted. […]
The antibiofilm activity of AMP on 72 hours biofilm cultures was tested by treating the biofilm beads with 2000, 1000, 500, 250, 125, and 62.5 μg/mL concentrations of the selected AMP in 96-well plates. […] The antibiofilm activity of the AMP was determined after observing the wells that contained a transparent solution with the naked eye. Subsequently, the antibiofilm activity of the selected AMP was determined using SEM, as described below. […]

The test system of series [1] is Human Fibroblasts (ATCC PCS201010). It counts as cell-based. On the procedure:
The cytotoxicity and genotoxicity in vitro effect of the AMP was investigated. Human Fibroblasts (ATCC PCS201010, ThermoFischer Scientific, USA) and cells were seeded at a seeding density of 10,000 Cells/well in 96-well plates using Dulbecco's Modified Eagle Medium (DMEM, Gibco, USA). Media was supplemented with 10% Fetal bovine serum (FBS, Gibco, USA), and penicillin streptomycin (Gibco, USA). Cells were incubated overnight (16-18 hrs) at humidified conditions (5% CO2, 37° C.). Adherent cells were then treated with different concentrations of the AMP (7.8125, 15.625, 62.5, 125, 250, 500, 1000, 2000 μg/ml), and cells were then incubated at humidified conditions for 24 hrs. Then conditioned media was collected at different time points 0, 0.5, 1, 3, 6, 24 hours) and used for measuring Lactate Dehydrogenase (LDH, Thermofischer, USA) following manufacturers' instructions. Adherent cells were used to measure cell viability using AlamarBlue (Invitrogen, USA) following manufacturers' instructions at the following time points 0, 0.5, 1, 3, 6, and 24 hours.

The subject of the next series is E. coli (ATCC-29522). In kind it is cell-based, Escherichia coli. On the procedure:
as §1, §2, §3

Another series relates to human fibroblast cells. Description: Genotoxicity, oxiselect comet assay. In kind it is cell-based. On the procedure:
The genotoxicity effect of the selected AMP was also investigated. In this part, human fibroblast cells were cultured in 24-well plates at a seeding density of 100,000 cells/well; cells were then allowed to adhere and proliferate overnight (16-18 hours). The following day, cells were treated with the AMP (1000 and 2000 μg/ml; negative and positive controls were included in this part, and cells were treated with DMEM and H2O2, respectively. After which, cells were incubated at humidified conditions for 24 hours. Following that, the genotoxicity effect of the AMP was measured using oxiselect comet assay (Abcam, UK) and following the manufacturer's instructions. Images were taken using OLYMPUS BX62, at magnification 40×, attached to an OLYMPUS DP73 digital camera. Image analysis was done using the ImageJ application (OpenComet plugin).

In a further series the test system is MRSA biofilm. In kind it is cell-based, Methicillin-Resistant Staphylococcus Aureus. On the procedure:
The first step in creating the biofilm was the selection of borosilicate glass beads 3-4 mm in diameter (ISOLAB Laborgeräte GmbH, Singapore). Then, the selected beads were soaked and cleaned with a soap solution; after that, they were washed with ddH2O, soaked in 80% ethanol for 24 hrs, and then washed properly using sterile water. Bacteria were then grown on these beads to create the biofilm by taking 20 μL of 0.5 McFarland from the bacterial strains (either MRSA or E. Coli), adding it to 200 μL of nutrient broth in 96-well flat-bottom plates, and placing one bead in cach well. 96-well plates were then sealed tightly with a parafilm and placed in an acrobic shaker (Innova 44 Incubator Shaker) for 72 hours at 37° C. at a speed of 100 rpm. Every 24 hours, 200 μL of fresh media was added to replace the consumed media. The beads were then placed in an Eppendorf tube containing 200 μL of nutrient broth and vortexed for 1 min to loosen any attached bacteria. This step was repeated after 24, 48, and 72 hours to observe the density of the biofilm formed on the beads. Then, 100 μL of the solution was serially diluted over ten-fold serial dilutions, and 20 μL of the serial dilution was spread onto fresh nutrient agar media and incubated at 37° C. for 18 hours. Biofilm colonies were then counted. Generated biofilms were used to investigate the selected AMP's ability to inhibit the MRSA and E. coli biofilms.
The antibiofilm activity of AMP on 72 hours biofilm cultures was tested by treating the biofilm beads with 2000, 1000, 500, 250, 125, and 62.5 μg/mL concentrations of the selected AMP in 96-well plates. Plates were then tightly sealed with a parafilm and placed in an acrobic shaker (Innova 44 Incubator Shaker) for 72 hours at 37° C. at a speed of 100 rpm. The antibiofilm activity of the AMP was determined after observing the wells that contained a transparent solution with the naked eye. Subsequently, the antibiofilm activity of the selected AMP was determined using SEM, as described below. […]

For the compound `CC(C)C[C@H](NC(=O)[C@H](CCCNC(=N)N)NC(=O)[C@H](CCCNC(=N)N)NC(=O)[C@H](CCCNC(=N)N)NC(=O)[C@H](Cc1ccccc1)NC(=O)CNC(=O)[C@H](CCCNC(=N)N)NC(=O)[C@H](CS)NC(=O)[C@H](CCCNC(=N)N)NC(=O)CNC(=O)CNC(=O)[C@H](CS)NC(=O)[C@H](Cc1ccccc1)NC(=O)[C@H](C)N)C(=O)N[C@@H](Cc1ccccc1)C(=O)N[C@@H](CS)C(=O)N[C@H](C(=O)N[C@@H](CCCCN)C(=O)N[C@@H](C)C(=O)N[C@@H](CS)C(=O)O)[C@@H](C)O` [AMP] (H-AFCGGRCRGFRRRLFCTKAC-OH; N-terminus and C-terminus assumed), the minimum bactericidal concentration (MBC) (usually the smallest concentration meeting the test's criterion for killing) with MRSA (ATCC-33591) (ATCC-33591, 24 h) was determined as 1000 mg/L (≈ 433 µM); in the series on E. coli (ATCC-29522) (ATCC-29522, 24 h), 1000 mg/L (≈ 433 µM). The antibacterial effect entry with MRSA (ATCC-33591) (MRSA, 2000, 1000 μg/ml AMP, 24 hours) was “biocidal effect”; in the series with E. coli (ATCC-29522) (E. coli, 2000, 1000 μg/ml AMP, 24 hours), “biocidal effect”. In addition, the “minimum inhibitory (MIC)” value in the series with MRSA (ATCC-33591) (MRSA, 24 hours, 37° C., read with the naked eye) is 500 mg/L; in the series on E. coli (ATCC-29522) (E. coli, 24 hours, 37° C., read with the naked eye), 500 mg/L. The antibiofilm effect result was “inhibit the E. coli biofilm” in the series on E. coli biofilm (E. coli biofilm, only the highest concentration 2000 μg/ml AMP); “eliminate the MRSA biofilm” with MRSA biofilm (MRSA biofilm, 2000, 1000 μg/ml AMP); “totally inhibiting the MRSA biofilm growth” with MRSA biofilm (MRSA biofilm, highest dose 2000 μg/ml AMP). In addition, the MIC/MBC in biofilm was found to be 2000 mg/L (≈ 866 µM) against E. coli biofilm (biofilm, 72 h) and 1000 mg/L (≈ 433 µM) against MRSA biofilm (biofilm, 72 h). For the same compound, the “cellular cytotoxicity (LDH)” value in series [1] is reported as “no cellular cytotoxicity was detected”. Moreover, the “genotoxicity (tail moment)” value with human fibroblast cells is given as “no significant effect”.
`OO` [H2O2, reference compound]: the “comet tail / DNA migration” value in the series with human fibroblast cells (human fibroblasts, AMP 2000, 500 μg/ml (figure legend), positive control H2O2) was “extensive DNA migration”.
